The target of test [1] is T1, Serine/threonine-protein kinase TAO2 (Homo sapiens, UniProt Q9UL54).
T1 sequence (Q9UL54 whole entry): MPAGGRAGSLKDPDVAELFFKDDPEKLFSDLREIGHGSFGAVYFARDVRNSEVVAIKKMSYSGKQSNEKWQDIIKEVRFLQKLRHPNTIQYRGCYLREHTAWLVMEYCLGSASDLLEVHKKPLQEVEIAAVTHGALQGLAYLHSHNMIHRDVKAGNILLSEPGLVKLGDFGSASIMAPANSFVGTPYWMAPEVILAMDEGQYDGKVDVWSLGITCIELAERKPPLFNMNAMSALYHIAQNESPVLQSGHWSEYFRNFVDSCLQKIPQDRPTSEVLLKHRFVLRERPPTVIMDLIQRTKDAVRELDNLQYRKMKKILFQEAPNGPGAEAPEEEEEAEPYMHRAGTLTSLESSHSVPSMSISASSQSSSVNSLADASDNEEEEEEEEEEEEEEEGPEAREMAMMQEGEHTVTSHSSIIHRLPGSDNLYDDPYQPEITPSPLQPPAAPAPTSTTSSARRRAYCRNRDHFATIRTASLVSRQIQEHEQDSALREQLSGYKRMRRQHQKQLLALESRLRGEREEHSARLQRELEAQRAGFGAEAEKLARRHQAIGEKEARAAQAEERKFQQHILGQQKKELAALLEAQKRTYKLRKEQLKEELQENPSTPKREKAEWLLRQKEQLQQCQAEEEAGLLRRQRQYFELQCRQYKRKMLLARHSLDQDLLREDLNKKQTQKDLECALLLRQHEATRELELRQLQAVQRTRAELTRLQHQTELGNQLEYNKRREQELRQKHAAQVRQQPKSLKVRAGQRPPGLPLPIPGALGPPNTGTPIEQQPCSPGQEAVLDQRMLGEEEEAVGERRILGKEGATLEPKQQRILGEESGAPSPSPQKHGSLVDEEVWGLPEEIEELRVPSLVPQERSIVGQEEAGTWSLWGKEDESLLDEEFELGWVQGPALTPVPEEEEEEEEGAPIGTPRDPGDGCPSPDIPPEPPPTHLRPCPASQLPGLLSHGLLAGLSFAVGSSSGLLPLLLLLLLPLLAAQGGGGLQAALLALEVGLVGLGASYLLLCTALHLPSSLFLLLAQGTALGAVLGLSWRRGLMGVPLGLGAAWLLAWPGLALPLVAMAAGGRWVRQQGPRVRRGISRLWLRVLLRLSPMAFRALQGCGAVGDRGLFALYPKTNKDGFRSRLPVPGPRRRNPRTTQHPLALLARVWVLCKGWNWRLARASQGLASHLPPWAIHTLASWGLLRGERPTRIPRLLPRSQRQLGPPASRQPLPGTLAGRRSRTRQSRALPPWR

Test [2] addresses T2, Phosphatidylinositol 5-phosphate 4-kinase type-2 gamma (Homo sapiens, UniProt Q8TBX8).
T2 sequence (Q8TBX8 whole entry): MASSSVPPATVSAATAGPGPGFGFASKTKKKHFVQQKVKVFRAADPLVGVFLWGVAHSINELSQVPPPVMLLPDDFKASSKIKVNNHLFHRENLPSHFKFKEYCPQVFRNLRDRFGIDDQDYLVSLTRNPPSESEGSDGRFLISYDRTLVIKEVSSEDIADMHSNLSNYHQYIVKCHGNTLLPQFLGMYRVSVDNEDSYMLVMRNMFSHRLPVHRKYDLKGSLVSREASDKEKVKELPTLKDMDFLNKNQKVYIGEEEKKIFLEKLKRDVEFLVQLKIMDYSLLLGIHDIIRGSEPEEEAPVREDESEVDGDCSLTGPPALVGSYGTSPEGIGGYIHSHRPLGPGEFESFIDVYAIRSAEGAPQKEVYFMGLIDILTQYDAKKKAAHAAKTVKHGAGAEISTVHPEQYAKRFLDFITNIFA

Test [3] addresses T3, NUAK family SNF1-like kinase 2 (Homo sapiens, UniProt Q9H093).
T3 sequence (Q9H093 whole entry): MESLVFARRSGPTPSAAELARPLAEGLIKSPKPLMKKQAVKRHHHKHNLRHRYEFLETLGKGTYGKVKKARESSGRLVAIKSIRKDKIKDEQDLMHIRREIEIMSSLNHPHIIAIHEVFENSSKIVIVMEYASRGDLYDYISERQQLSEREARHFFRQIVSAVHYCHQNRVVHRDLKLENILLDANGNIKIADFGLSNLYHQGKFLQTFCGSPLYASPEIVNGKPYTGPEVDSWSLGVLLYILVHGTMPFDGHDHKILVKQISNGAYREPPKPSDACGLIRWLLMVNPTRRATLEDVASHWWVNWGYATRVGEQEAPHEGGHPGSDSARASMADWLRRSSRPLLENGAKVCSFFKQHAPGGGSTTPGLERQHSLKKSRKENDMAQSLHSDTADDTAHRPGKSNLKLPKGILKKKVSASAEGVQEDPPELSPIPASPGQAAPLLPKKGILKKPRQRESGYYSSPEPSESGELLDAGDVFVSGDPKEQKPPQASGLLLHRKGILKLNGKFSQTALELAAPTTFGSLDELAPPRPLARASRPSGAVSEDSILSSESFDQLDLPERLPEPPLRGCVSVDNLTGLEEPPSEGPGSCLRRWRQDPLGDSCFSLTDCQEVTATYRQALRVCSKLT

For test [4], the target named is Platelet-derived growth factor receptor beta (Homo sapiens, UniProt P09619).
Sequence of Platelet-derived growth factor receptor beta (P09619 whole entry): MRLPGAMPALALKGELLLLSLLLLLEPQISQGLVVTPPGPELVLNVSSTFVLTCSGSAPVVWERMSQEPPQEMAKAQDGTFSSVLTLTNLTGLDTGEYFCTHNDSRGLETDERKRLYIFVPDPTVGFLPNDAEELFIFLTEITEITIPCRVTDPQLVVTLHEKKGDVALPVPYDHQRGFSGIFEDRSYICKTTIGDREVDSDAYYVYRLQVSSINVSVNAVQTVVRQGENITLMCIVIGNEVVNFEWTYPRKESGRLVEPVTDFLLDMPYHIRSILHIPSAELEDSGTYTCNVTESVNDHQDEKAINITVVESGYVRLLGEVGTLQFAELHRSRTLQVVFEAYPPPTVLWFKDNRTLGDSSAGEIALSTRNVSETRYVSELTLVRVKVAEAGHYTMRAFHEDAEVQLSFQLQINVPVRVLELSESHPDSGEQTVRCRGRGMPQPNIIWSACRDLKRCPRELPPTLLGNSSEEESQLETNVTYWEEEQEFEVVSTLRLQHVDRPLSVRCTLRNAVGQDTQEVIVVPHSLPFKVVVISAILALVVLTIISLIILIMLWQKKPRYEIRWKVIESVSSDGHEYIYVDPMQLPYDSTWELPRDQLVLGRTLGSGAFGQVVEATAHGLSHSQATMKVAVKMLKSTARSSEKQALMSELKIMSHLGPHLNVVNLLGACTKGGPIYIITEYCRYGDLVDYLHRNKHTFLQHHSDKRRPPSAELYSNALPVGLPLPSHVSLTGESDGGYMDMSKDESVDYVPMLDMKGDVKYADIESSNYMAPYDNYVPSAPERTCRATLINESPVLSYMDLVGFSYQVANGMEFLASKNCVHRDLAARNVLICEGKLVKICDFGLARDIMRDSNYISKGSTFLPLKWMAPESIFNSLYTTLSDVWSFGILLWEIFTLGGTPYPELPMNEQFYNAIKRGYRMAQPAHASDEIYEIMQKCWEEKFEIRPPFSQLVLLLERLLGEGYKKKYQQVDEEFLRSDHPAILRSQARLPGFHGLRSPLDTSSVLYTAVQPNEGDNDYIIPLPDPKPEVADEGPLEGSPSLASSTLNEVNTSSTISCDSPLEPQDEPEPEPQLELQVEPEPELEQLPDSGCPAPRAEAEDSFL

The structures appear in SMILES notation. Calls of active or inactive are those of the source. For most assays here, no stated cut-off is given here; in the data, actives have a measured Kd and inactives only a lower limit.

By Kd is commonly meant the concentration at which binding is half-saturated. `C[C@@H](Nc1cc(F)cc(F)c1)c1cc(C(=O)N(C)C)cc2c(=O)cc(N3CCOCC3)oc12` [AZD-8186]: the Kd in test [1], in test [2], in test [3] and in test [4] was > 30 µM (inactive) in each case.
As to `CN1CCC(COc2cnc(-c3cccc(Cn4nc(-c5cccc(C#N)c5)ccc4=O)c3)nc2)CC1` [TEPOTINIB], the Kd in test [1], in test [2], in test [3] and in test [4] was > 30 µM (inactive) each time.
For `COc1cc2nccc(Oc3ccc(NC(=O)Nc4cc(C)on4)c(Cl)c3)c2cc1OC` [TIVOZANIB], the Kd in test [1] was > 30 µM (inactive); in test [2] it was > 30 µM (inactive); in test [3], > 30 µM (inactive); in test [4], 2.41 µM (active).
As for `CCCS(=O)(=O)Nc1ccc(F)c(C(=O)c2c[nH]c3ncc(-c4ccc(Cl)cc4)cc23)c1F` [VEMURAFENIB], the Kd in test [1], in test [2], in test [3] and in test [4] was > 30 µM (inactive) throughout.
In the case of `N[C@@H]1CCCN(c2c(/C=C3\SC(=O)NC3=O)cccc2-c2ccccc2)C1`, the Kd in test [1], in test [2], in test [3] and in test [4] was > 30 µM (inactive) in each case.
On to `O=C(O)[C@]1(Cc2cccc(Nc3nccs3)n2)CC[C@@H](Oc2cccc(Cl)c2F)CC1` [MK-5108], for which the Kd in test [1], in test [2], in test [3] and in test [4] was > 30 µM (inactive) throughout.
Consider `COc1cc(OC)c(/C=C/S(=O)(=O)Cc2ccc(OC)c(NCC(=O)O)c2)c(OC)c1` [RIGOSERTIB], for which the Kd in test [1], in test [2], in test [3] and in test [4] was > 30 µM (inactive) throughout.
For the molecule `CC[C@@H]1C(=O)N(C)c2cnc(Nc3ccc(C(=O)N[C@H]4CC[C@H](N5CCN(CC6CC6)CC5)CC4)cc3OC)nc2N1C(C)C` [VOLASERTIB], the Kd in test [1], in test [2], in test [3] and in test [4] was > 30 µM (inactive) each time.
In the case of `Cc1cc(-c2cc(O)ccc2Cl)cc2nnc(Nc3ccc(OCCN4CCCC4)cc3)nc12`, the Kd in test [1], in test [2], in test [3] and in test [4] was > 30 µM (inactive) throughout.
For the molecule `CCn1c(=O)c(-c2cc[nH]n2)cc2c(C)nc(N)nc21` [VOXTALISIB], the Kd in test [1], in test [2], in test [3] and in test [4] was > 30 µM (inactive) each time.
For the molecule `Cn1ncc(Cl)c1-c1cc(C(=O)N[C@H](CN)Cc2cccc(F)c2)sc1Cl` [AFURESERTIB], the Kd in test [1], in test [2], in test [3] and in test [4] was > 30 µM (inactive) each time.
With `Cc1cc2c(F)c(Oc3ncnn4cc(OC[C@@H](C)OC(=O)[C@H](C)N)c(C)c34)ccc2[nH]1` [BRIVANIB ALANINATE], the Kd in test [1] was > 30 µM (inactive); in test [2] it was > 30 µM (inactive); in test [3] it was 0.003 µM; in test [4], 1.89 µM (active).
Consider `CN1CCC(CNc2ccc3ncc(-c4cccc(OC(F)(F)F)c4)n3n2)CC1` [SGI-1776], for which the Kd in test [1] was > 30 µM (inactive); in test [2], > 30 µM (inactive); in test [3], > 30 µM (inactive); in test [4] it was 1.61 µM (active).
In the case of `CC[C@H](Nc1ncnc2[nH]cnc12)c1nc2cccc(F)c2c(=O)n1-c1ccccc1` [IDELALISIB], the Kd in test [1], in test [2], in test [3] and in test [4] was > 30 µM (inactive) each time.
On to `COC(=O)N[C@@H](C)CNc1nccc(-c2cn(C(C)C)nc2-c2cc(Cl)cc(NS(C)(=O)=O)c2F)n1` [ENCORAFENIB], for which the Kd in test [1], in test [2], in test [3] and in test [4] was > 30 µM (inactive) throughout.
Consider `O=c1sn(-c2cccc3ccccc23)c(=O)n1Cc1ccccc1` [TIDEGLUSIB], for which the Kd in test [1], in test [2], in test [3] and in test [4] was > 30 µM (inactive) in each case.
Regarding `COC(=O)[C@@]1(O)C[C@H]2O[C@]1(C)n1c3ccccc3c3c4c(c5c6ccccc6n2c5c31)C(=O)NC4` [K-252A], the Kd in test [1] was > 30 µM (inactive); in test [2], > 30 µM (inactive); in test [3], > 30 µM (inactive); in test [4], 1.01 µM (active).
Take `C1=C/COCc2cc(ccc2OCCN2CCCC2)Nc2nccc(n2)-c2cccc(c2)COC/1` [PACRITINIB]: the Kd in test [1] was 3.37 µM (active); in test [2], > 30 µM (inactive); in test [3], > 30 µM (inactive); in test [4] it was 2.67 µM (active).
As for `Cc1ccc(S(=O)(=O)Nc2nc3ccccc3nc2Nc2ccc3nsnc3c2)cc1`, the Kd in test [1], in test [2], in test [3] and in test [4] was > 30 µM (inactive) each time.
Regarding `Cn1cc(-c2ccc(F)c(C(F)(F)F)c2)nc1C1CCN(c2ncnc3[nH]ncc23)CC1` [LY-2584702], the Kd in test [1], in test [2], in test [3] and in test [4] was > 30 µM (inactive) each time.
Take `CN(C)C(=O)c1cc2cnc(Nc3ccc(N4CCNCC4)cn3)nc2n1C1CCCC1` [RIBOCICLIB]: the Kd in test [1], in test [2], in test [3] and in test [4] was > 30 µM (inactive) each time.
In the case of `O=C(Nc1ccc(-c2ccnc(Nc3ccc(N4CCOCC4)cc3)n2)cc1)C1CCCN1` (stereo unspecified) [XL-019], the Kd is > 30 µM (inactive) in test [1], 1.59 µM (active) in test [2], > 30 µM (inactive) in test [3] and 1.12 µM (active) in test [4].
Consider `CNC(=O)CN1CCC(Oc2cc3c(Nc4cccc(Cl)c4F)ncnc3cc2OC)CC1` [SAPITINIB], for which the Kd in test [1], in test [2], in test [3] and in test [4] was > 30 µM (inactive) throughout.
In the case of `Cc1cc([C@@H](C)Nc2ccccc2C(=O)O)c2nc(N3CCOCC3)cc(=O)n2c1` [AZD-6482], the Kd in test [1], in test [2], in test [3] and in test [4] was > 30 µM (inactive) in each case.

Source of the values: ChEMBL document CHEMBL3991601, “The target landscape of clinical kinase drugs” (Science, 2017).
